For orientation: melting point means the temperature of the solid-liquid transition.

We go through 66 compounds from a melting point compilation (Tetko et al.; mined from patent text by program, amines drawn as free bases though some values may be those of a salt).

Compound `CCCc1nc(C=NNC(=O)OCC)c(C)[nH]1` had a melting point of 184 to 188 °C.

`COc1cc(O)c2c(c1)C1OC1CC(O)C(O)C(=O)C=CCC(C)OC2=O` (stereo unspecified) yielded a melting point of 173 to 174 °C.

Regarding `CN(C(=O)C(Br)OC(N)=O)c1ccccc1` (stereo unspecified), the melting point is 136 to 138 °C.

In turn, `CCOC(=O)[C@H](CCSCC)NC(=O)C(CSC(C)=O)Cc1ccccc1` (stereo partly specified) displayed a melting point of 79 to 84 °C.

In turn, `Cc1ccc(C)c(Sc2ccc(C#N)cc2S(=O)(=O)N2CCOCC2)c1` had a melting point of 181 to 184 °C.

With `COc1ccc(S(=O)(=O)N(C)C)c([N+](=O)[O-])c1`, the melting point was 90 to 92 °C.

On to `COc1cccc(OC)c1-c1cc(C(=O)NC2(C(=O)O)C3CC4CC(C3)CC2C4)nn1-c1ccc(N)cc1C` (stereo unspecified), for which the melting point was 205 °C.

`C#CC1(OC(C)=O)CCC2C3CC(=C)C4=CC(=O)CCC4(C)C3CCC21C` (stereo unspecified): the melting point was in the range of 158 to 160 °C.

Turning to `O=C(O)c1cn(CC2CCCC2)c2cc(Cl)ccc12`, the melting point lay in the range of 181 to 184 °C.

For the compound `Cc1cc(N2CCN(c3ccncc3)CC2)ccc1OCCCC(=O)O`, the melting point was in the range of 261 to 262 °C.

Compound `O=S(=O)(c1ccc(Cl)cc1)N1CCCC1c1cccc(F)c1` (racemic) returned a melting point of 126 °C.

In turn, `Oc1cccc(O)c1Br` displayed a melting point of 86 to 88 °C.

`c1ccc2c(c1)cc(Cn1ccnc1)c1ccsc12`: the melting point lay within 109 to 111 °C.

`Cc1cc(C(C)(C)C)c(O)c2c1C1CCCCC1C2=O` (stereo unspecified): the melting point fell in the range of 77 to 78 °C.

The compound `CCc1cccc2c1CCN([C@@H]1CN3CCC1CC3)C2=O` gave a melting point greater than 290 °C.

The compound `Cc1oc(-c2ccccc2)nc1COc1ccc(CCc2oc(-c3ccccc3)nc2CO)cc1` showed a melting point of 142 to 143 °C.

With `COc1cc(OCc2ccccn2)ccc1/C=C/C(=O)CC(=O)/C=C/c1cc2ccccc2o1`, the melting point is 126 to 128 °C.

`COCCCOc1cc(CC(CC(NC(=O)OC(C)(C)C)C2CC(C)C(=O)O2)C(C)C)ccc1OC` (stereo unspecified) displayed a melting point of 86 to 87 °C.

Consider `O=C(NN=CC(F)(F)C(F)(F)F)c1nc(Oc2cccc(C(F)(F)F)c2)ccc1Cl`, for which the melting point lay within 130 to 131 °C.

On to `N#CC1(Cc2nnn[nH]2)C2CCCC1CCC2` (stereo unspecified), for which the melting point was 189 to 191 °C.

Compound `CC(C)c1cccc(C(C)C)c1NC(=O)CN1CCN(c2cccc(Sc3nc4ccccc4[nH]3)c2)CC1` yielded a melting point of 123 to 125 °C.

`OCCCc1cccc(OCc2coc(/C=C/c3ccccc3)n2)c1` registered a melting point of 57 to 58 °C.

In turn, `Cc1nsc(Br)c1S(=O)(=O)NC(C)(C)C` gave a melting point of 118 to 123 °C.

Compound `CC(C)c1n[nH]c(Cl)c1C=NC(C#N)=C(N)C#N` displayed a melting point of 145 to 150 °C.

The compound `Cn1c(OCC(F)(F)F)nn(C(=O)Oc2ccccc2)c1=O` gave a melting point of 105 °C.

`N#Cc1ccc(C2CC(n3ccnc3)c3ccccc3N2)cc1` (stereo unspecified) returned a melting point of 166 to 168 °C.

On to `N#Cc1c(Nc2ccccc2)cccc1Oc1ccccc1`, for which the melting point fell in the range of 146 to 147 °C.

`CN(C)CCC(=O)N1Cc2cccc3c2N(CC3)c2ccccc21` gave a melting point of 91 to 92.5 °C.

`Nc1ncnc2sc(Cc3ccncc3)c(-c3ccc(NC(=O)Nc4cccc(C(F)(F)F)c4)cc3)c12` registered a melting point of 162 to 166 °C.

Consider `O=C(Nc1ccc(N2C[C@@H]3C[C@H]2CO3)c(F)c1)OCc1ccccc1`, for which the melting point was 120 to 121 °C.

Take `COC(=O)CCC(NC(c1ccccc1)c1ccccc1)P(O)O` (stereo unspecified): the melting point is 162 to 164 °C.

In turn, `Cn1cc(S(C)=O)c(=O)c2ccc(Cl)cc21` (stereo unspecified) returned a melting point of 245 to 247 °C.

In the case of `Clc1cccc(Nc2nccc(Cl)n2)c1`, the melting point lay within 112 to 114 °C.

`c1ccc(CN(Cc2ccccc2)C2CCC3(CC2)OCCO3)cc1` displayed a melting point greater than 95 °C.

As to `O=C(O)CSC1CCCc2cc3c(cc21)OCO3` (stereo unspecified), the melting point lay in the range of 138 to 139 °C.

`O=C1OCc2c1cc1ccc3c(c1c2-c1ccc(F)cc1)OCO3`: the melting point was in the range of 215 to 218 °C.

On to `COc1ccc2c(ccn2Cc2ccccc2Br)n1`, for which the melting point fell in the range of 86 to 87 °C.

`CS(=O)(=O)Nc1ccc2c(c1)CCC1(CCC(N3CCc4ccccc4C3)CC1)O2` (stereo unspecified) yielded a melting point of 183 to 185 °C.

`O=C(Nc1cccc(Oc2ccc3nc(NC(=O)C4CC4)cn3n2)c1)c1ccccc1` showed a melting point of 265 °C.

`COc1ccc(C(=O)c2c[nH]c(=O)[nH]2)cc1OC` yielded a melting point of 257 to 259 °C.

`Nc1cc(-c2nnc(SCc3cccc(F)c3)o2)ccn1` registered a melting point of 175 to 176 °C.

Compound `COC(=O)c1ccc(C(C(N)=O)C(C)c2cc(Cl)ccc2N2CCCC2)cc1` (stereo unspecified) came in with a melting point of 133 to 135 °C.

The compound `Cc1ccc(Cl)c2nc3cccc(C(=O)O)c3nc12` yielded a melting point of 255 to 257 °C.

Take `O=C1c2ccccc2C(=O)N1CC#Cc1ccc(Cl)cc1C(O)c1ccccc1F` (stereo unspecified): the melting point was 158 to 160 °C.

The compound `Cc1cc2cc(C#N)c(=O)[nH]c2cc1C` came in with a melting point of 300 °C.

Compound `O=C1CCC(c2nc(-c3ccccc3)c(-c3ccccc3)o2)N1` (stereo unspecified) yielded a melting point of 145 to 147 °C.

Consider `CCCCOC(=O)COCCCNC(=O)[C@H](C)NC(=O)OCc1ccccc1`, for which the melting point lay within 54 to 55 °C.

In turn, `CCn1cc(C(=O)O)c(=O)c2cc(F)c(-c3ccncc3)nc21` came in with a melting point of 286 to 288 °C.

As for `CN(C)C(=O)Sc1ccc2ccncc2c1Cl`, the melting point fell in the range of 140 to 142 °C.

Turning to `Cc1nc2nccc(-c3cccnc3)n2n1`, the melting point lay in the range of 244 to 245 °C.

`CCOC(=O)C1=C(O)c2ccccc2N(c2ccccc2)C1`: the melting point lay within 103 to 106 °C.

With `CCCc1c(OCCCOc2ccc3c(c2CCC)OC(CCC(=O)OCC)CC3)ccc(C(C)=O)c1O` (stereo unspecified), the melting point was in the range of 68 to 70 °C.

As for `NC(=O)C(c1ccc([N+](=O)[O-])cc1)c1ccccn1` (racemic), the melting point lay within 155 to 156 °C.

`CC(C)(C)CC(=O)Nc1cc(NC(=O)C(C)(C)C)cc(NC(=O)C(C)(C)C)c1`: the melting point came out at 368 °C.

As for `CCOC(=O)c1cc(-c2nnnn2C)c(-c2ccc(F)cc2)s1`, the melting point lay within 132 to 133 °C.

Turning to `O=[N+]([O-])c1ccc(-n2nnnc2-c2ccccc2Br)cc1`, the melting point is 169 to 170 °C.

In turn, `CCOCc1nc2c(N)nc(C)c(C)c2n1NC1CCC1` showed a melting point of 139 to 141 °C.

Regarding `CCc1cccc(C)c1CNc1cc(Br)cc2c1nc(CO)n2C`, the melting point was 206 to 208 °C.

Consider `O=C(OCc1ccc(Cl)cc1)C(=C1NCCCS1)[N+](=O)[O-]`, for which the melting point lay in the range of 119 to 120 °C.

For the compound `COc1ccc(CCc2ccc(NC=O)cc2)cc1OC`, the melting point was in the range of 128 to 130 °C.

In turn, `COc1cc(C)nc(C)c1C(=O)OC(C)c1nc2c(c(=O)n(C)c(=O)n2C)n1C` (stereo unspecified) had a melting point of 135 to 138 °C.

For the compound `NS(=O)(=O)c1ccc(-n2nc(CCCNC(=O)Nc3ccc(C(F)(F)F)cc3)cc2-c2ccccc2)cc1`, the melting point fell in the range of 185 to 186 °C.

Turning to `Fc1ccc2[nH]c3c4c(Cl)cccc4nc-3cc2c1`, the melting point lay within 201 to 204 °C.

For `CCOC(=O)c1cnc(Oc2ccccc2)s1`, the melting point came out at 67 °C.

The compound `C=CS(=O)(=O)CS(=O)(=O)C=C` came in with a melting point of 59 to 61 °C.

Compound `Cc1cc(C(N)=O)ncc1C(c1c(F)ccc(F)c1F)S(=O)(=O)CCC(F)F` (stereo unspecified) returned a melting point of 192 °C.
